Experiments:
C57BL/6 male mice [1] = assay: NTN (Nephrotoxic Serum-Induced Nephritis) model; assay type: in vivo, mouse; details: oral 5, 10, 20 mg/kg for 7 days from disease induction
Protocol: After sensitizing C57BL/6 male mice with 200 μg sheep IgG and Freund's […] adjuvant, 10 μg of sheep nephrotoxic serum was injected after five days to induce disease. From the day the disease was induced, the compounds of Examples were orally administered at doses of 5 mg/kg, 10 mg/kg, and 20 mg/kg for 7 days, respectively. Saline was administered to the negative control group (vehicle). On day 8, renal function (uPCR, BUN) was assessed.
The NTN model is a glomerulonephritis model that causes inflammation in the glomeruli, which induces proteinuria.

CD8+ T cells = assay: CD8+ T cell proliferation inhibition (CFSE staining, flow cytometry); assay type: cell-based; details: human blood CD8+ T cells; 1.25, 2.5, 5, 10 μM; 5 days; FIG. 2
Protocol: (§1) PBMCs were transferred to a new tube using a pipette. After RBC lysis buffer was added to PBMC, centrifugation was performed, and then CD8 or CD4 cells were isolated using CD8 MicroBeads (Miltenyl Biotec, 130-045-201) or CD4 MicroBeads (Miltenyl Biotec, 130-096-533). A CFSE (-(and-6)-Carboxyfluorescein Diacetate, Succinimidyl Ester) labeling solution (Invitrogen, C1157) was added to the isolated cells. The compounds of Examples were dissolved in DMSO to make a 5 mM stock, then treated to make 1.25 μM, 2.5 μM, 5 μM, and 10 μM, respectively. After 5 days, the degree of cell proliferation was measured by the amount of CFSE staining using flow cytometry, and the results are shown in FIG. 2.

C57BL/6 male mice [2] = assay: Mouse renal failure prevention model by Adenine diet; assay type: in vivo; details: oral once a day 5, 10, 20 mg/kg for 4 weeks, simultaneously with adenine
Protocol: (§2) A feed containing adenine was administered to C57BL/6 male mice as described in Ali et al. J Pharmacol Toxicol Methods 2013; Jia et al. BMC Nephrol 2013; Tanaka et al. Am J Pathol 2009. Simultaneously with the start of adenine administration, 5 mg/kg, 10 mg/kg, and 20 mg/kg of the compounds of Examples were orally administered daily for 4 weeks (FIG. 8). Physiological saline was administered to the negative control group (vehicle). Blood BUN and Creatinine, which are the primary indicators of kidney function, were measured.
Additionally, the degree of fibrosis of the mouse kidney tissue was measured through immunochemical staining.

CD4+ T cells = assay: CD4+ T cell proliferation inhibition (CFSE staining, flow cytometry); assay type: cell-based; details: human blood CD4+ T cells; 1.25, 2.5, 5, 10 μM; 5 days; FIG. 2
Protocol: as §1

C57BL/6 male mice [3] = assay: Mouse renal failure treatment model by Adenine diet; assay type: in vivo; details: oral once a day 5, 10, 20 mg/kg for 2 weeks, starting 2 weeks after start of adenine
Protocol: as §2, with “2009. Starting 2 weeks after” for “2009. Simultaneously with”, “10 mg/kg” for “10 mg/kg,”, “for 2” for “for 4”, “(FIG. 4).” for “(FIG. 8).”
Further, the degree of fibrosis of the mouse kidney tissue was measured through immunochemical staining, and the results are shown in FIG. 5.

[4] = tested on: Rat kidney cell line (NRK-49F cell line); assay: Fibrotic factor inhibition in rat kidney cell line (western blot); assay type: cell-based; details: 5 ng/ml TGFb, 2.5, 5, 10 μM, 48 hours, FIG. 6
gdT cells = assay: Inhibition of IL-17 factor in gdT cells (IL-17A ELISA); assay type: cell-based; details: gdT cells from normal human blood; 10 μM; IL-2 and IL-15 10 ng/ml each; FIG. 3
Protocol: After collecting 10 ml of normal human blood, ficoll density gradient medium (Cytiva, 17144003) and PBS, the immune cell layer (PBMC) was isolated using a centrifuge. PBMCs were transferred to a new tube using a pipette. After RBC lysis buffer was added to PBMC, centrifugation was performed, and then 10 ng/ml of human IL-2 and IL-15 protein (cytokine) were respectively added to the cells, and cultured (for the purpose of inducing IL-17A). The compounds of Examples were dissolved in DMSO to make a 5 mM stock, and then 10 μM of the example compound was treated. On the 3rd and 5th days of cytokine treatment, 10 ng/ml of human IL-2 and IL-15 proteins (cytokine) were added, centrifuged, and the supernatant was collected. The IL-17A expression level was confirmed with the collected supernatant using an IL-17A ELISA kit (DY371, R&D Systems), and the results are shown in FIG. 3.

[5] = tested on: human primary kidney cells; assay: Fibrotic factor inhibition in human primary kidney cells (western blot); assay type: cell-based; details: 5 ng/ml TGFb, 1.25 µM, 2.5 μM, 5 μM, 48 hours, FIG. 7
Protocol: Digestion buffer was added to human kidney tissue (preserved after biopsy), cut into small pieces with scissors, and then disintegrated through a shaker incubation for 90 minutes. After filtering the disintegrated tissue through a 70 μm filter cell strainer, the remaining tissue was filtered once again using a 40 μm filter cell strainer. The filtered disintegrated tissue solution was centrifuged, and the cells were isolated and cultured. The cultured cells were treated with 5 ng/ml TGFb and […], 2.5 μM, and 5 μM of the compounds of Examples, respectively, and then 48 hours later, cells were harvested, and western blot was performed to quantitatively analyze fibrotic factor proteins.

O[C@H]1CCCN[C@@H]1CCCn1cnc2c(Cl)c(Cl)ccc21 [Example]
effect on damaged glomerular tissue (C57BL/6 male mice [1]; FIG. 10 and FIG. 11 (immunochemical staining)): effective in damaged glomerular tissue | proteinuria (uPCR) (C57BL/6 male mice [1]; assessed day 8, PRSi 5 mg/kg on the left side of FIG. 10): significantly reducing proteinuria | CD8+ T cell proliferation (CD8+ T cells): cell proliferation is inhibited | deterioration of renal function (blood BUN and Creatinine) (C57BL/6 male mice [2]; FIG. 8): significantly inhibited in a dose-dependent manner | preventive effect on kidney damage caused by Adenine diet (C57BL/6 male mice [2]; FIG. 8): exhibited preventive effect | collagen accumulation in renal tissue (immunochemical staining) (C57BL/6 male mice [2]; FIG. 9): significantly inhibited in a dose-dependent manner | CD4+ T cell proliferation (CD4+ T cells): cell proliferation is inhibited | deterioration of renal function (blood BUN and Creatinine) (C57BL/6 male mice [3]; FIG. 4): significantly inhibited in a dose-dependent manner | accumulation of collagen in renal tissue (immunochemical staining) (C57BL/6 male mice [3]; FIG. 5): significantly inhibited in a dose-dependent manner | fibrotic factor collagen [4]: significantly inhibited | fibrotic factor fibronectin [4]: significantly inhibited | fibrotic factor αSMA [4]: significantly inhibited | IL-17 cytokine inhibition (gdT cells): inhibited | fibrotic factor collagen [5]: significantly inhibited | fibrotic factor fibronectin [5]: significantly inhibited | fibrotic factor αSMA [5]: significantly inhibited

Source: patent US20260345556A1, “Pharmaceutical Composition for Preventing or Treating Nephritis” (Daewoong Pharmaceutical Co., Ltd., priority 2022, published 2026)
